Tested on: naturally occurring non-Hodgkin's lymphoma
Test: Efficacy in a dog with naturally occurring non-Hodgkin's lymphoma (RECIST)
Type: in vivo
Parameters: key to Lymphnode R PSLN size / Lymphnode L PopLN size / Lymphnode L SMLN size / Lymphnode R SMLN size / Lymphnode L PSLN size: WNL refers to when a lymph node is decreased to a size considered within normal ranges for that node
Conditions: for % change of sum of lymphnodes: vs baseline sum; for Sum of lymphnodes: Day 0 pre treatment sum 16.9
Description: Compound (21) was evaluated for efficacy in a dog with naturally occurring non-Hodgkin's lymphoma (NHL). Canine NHL has proven to be a relevant model for preclinical evaluation of new therapeutics, both for initial induction and rescue of drug-resistant relapse (Reference Vail D M, Thamm D H. Spontaneously occurring tumors in companion animals as models for drug development. In: Teisher B A, ed. Anticancer Drug Development Guide. 2nd ed. Totowa (NJ): Humana Press Inc; 2004; 259-286.) Evaluation of novel therapeutic approaches in dogs with spontaneous cancer offers potential benefit to canine patients and a rapid assessment of therapeutic index. Because the tumors arise spontaneously in an immunologically intact host and have greater heterogeneity than passaged cell lines, it is not surprising that responses to standard chemotherapeutic agents in canine malignancies are similar to those of the corresponding tumors in man and that the preclinical results attained may be more predictive of the activity in humans (references; Khanna C, Paoloni M. Translation of new cancer treatments from pet dogs to humans. Nature Rev Cancer. 2008; 8:7-16.; Vail D M, Young K M. Canine lymphoma and lymphoid leukemia. In: Withrow S J, Vail D M, eds. Small Animal Clinical Oncology. 4th Ed. St. Louis (MO): Saunders; 2007. p. 699-733.) Non-Hodgkin's lymphoma in dogs represents a relatively homogenous population with respect to histological type as defined by the REAL/WHO or NCI-Working Formulation schema (i.e., 85% are medium- to high-grade B-cell NHL) with the majority being diffuse large B-cell lymphoma (reference Jacobs R M, Messick J B, Valli V E. Tumors of the hemolymphatic system. In: Meuten D J, editor. Tumors in Domestic Animals. 4th Ed. Ames (IA): Iowa State Press; 2002:119-198).
Compound (21) was administered at a dose of 0.3 mg/kg of body weight by 30 minute IV infusion in Sterile Saline Injection (0.9% sodium chloride for injection) (total volume 2 ml/kg or 100 ml) once every 21 days to a dog that had non-Hodgkin's lymphoma involving multiple lymphnodes. Diagnosis was confirmed by histological evaluation of the tumor. The effect of treatment on the tumor was measured using the Response Evaluation Criteria in Solid Tumors (RECIST) Guideline (Therasse et al 2000). The size of the tumors and response to treatment was evaluated by in these peripherally accessible lymph nodes, by measuring the longest dimension using callipers and evaluating changes in the individual tumor measurement and their sums. […] Confirmation was done by cytological examination of an aspirated biopsy to confirm the absence of tumor cells.

[1] = Day 7 (printed under the Day 1 column)
[2] = Day 14 (printed under the Day 7 column)
[3] = Day 21 (printed under the Day 14 column)
[4] = Day 28 (printed under the Day 21 column)
[5] = Day 42 (printed under the Day 28 column)

## CCCOc1nc(N)nc2c1ncn2CCOCP(=O)(N1CCC[C@H]1C(=O)OCC)N1CCC[C@H]1C(=O)OCC [Example 21]
Day 1 (printed under the Day 0 column)
  % change of sum of lymphnodes: −13.0%
Day 1, 0.3 mg/kg IV once every 21 days, Day 0 pre treatment 2.3
  Lymphnode L PopLN longest dimension: 2.1 cm
Day 1, 0.3 mg/kg IV once every 21 days, Day 0 pre treatment 2.9
  Lymphnode R SMLN longest dimension: 3.1 cm
Day 1, 0.3 mg/kg IV once every 21 days, Day 0 pre treatment 3.1
  Lymphnode L SMLN longest dimension: 2.0 cm
Day 1, 0.3 mg/kg IV once every 21 days, Day 0 pre treatment 3.6
  Lymphnode R PSLN longest dimension: 3.6 cm
Day 1, 0.3 mg/kg IV once every 21 days, Day 0 pre treatment 5.0
  Lymphnode L PSLN longest dimension: 3.9 cm
Day 1, 0.3 mg/kg IV once every 21 days
  Sum of lymphnodes: 14.7 cm
Day 1 vs Day 0 pre treatment sum 16.9
  Change of sum of lymphnodes: −2.2 cm
[1]
  Response (RECIST): PR (Partial Response (PR) if at least a 30% decrease in the sum of the LD of target lesions, taking as reference the baseline sum)
  % change of sum of lymphnodes: −66.3%
Day 7, 0.3 mg/kg IV once every 21 days, Day 0 pre treatment 2.3
  Lymphnode L PopLN longest dimension: 1.6 cm
Day 7, 0.3 mg/kg IV once every 21 days, Day 0 pre treatment 2.9
  Lymphnode R SMLN longest dimension: 1.0 cm
Day 7, 0.3 mg/kg IV once every 21 days, Day 0 pre treatment 3.1
  Lymphnode L SMLN longest dimension: 1.1 cm
Day 7, 0.3 mg/kg IV once every 21 days, Day 0 pre treatment 3.6
  Lymphnode R PSLN longest dimension: 1.0 cm
Day 7, 0.3 mg/kg IV once every 21 days, Day 0 pre treatment 5.0
  Lymphnode L PSLN longest dimension: 1.0 cm
Day 7
  Sum of lymphnodes: 5.7 cm
Day 7 vs Day 0 pre treatment sum 16.9
  Change of sum of lymphnodes: −11.2 cm
[2]
  Response (RECIST): PR (Partial Response (PR) if at least a 30% decrease in the sum of the LD of target lesions, taking as reference the baseline sum)
  % change of sum of lymphnodes: −69.2%
Day 14, 0.3 mg/kg IV once every 21 days, Day 0 pre treatment 2.3
  Lymphnode L PopLN longest dimension: 1.0 cm
Day 14, 0.3 mg/kg IV once every 21 days, Day 0 pre treatment 2.9
  Lymphnode R SMLN longest dimension: 1.0 cm
Day 14, 0.3 mg/kg IV once every 21 days, Day 0 pre treatment 3.1
  Lymphnode L SMLN longest dimension: 1.0 cm
Day 14, 0.3 mg/kg IV once every 21 days, Day 0 pre treatment 3.6
  Lymphnode R PSLN longest dimension: 1.0 cm
Day 14, 0.3 mg/kg IV once every 21 days, Day 0 pre treatment 5.0
  Lymphnode L PSLN longest dimension: 1.2 cm
Day 14
  Sum of lymphnodes: 5.2 cm
Day 14 vs Day 0 pre treatment sum 16.9
  Change of sum of lymphnodes: −11.7 cm
Day 21 (Treatment #2), 0.3 mg/kg IV once every 21 days, Day 0 pre treatment 2.3
  Lymphnode L PopLN longest dimension: 1.3 cm
Day 21 (Treatment #2), 0.3 mg/kg IV once every 21 days, Day 0 pre treatment 2.9
  Lymphnode R SMLN longest dimension: 2.0 cm
Day 21 (Treatment #2), 0.3 mg/kg IV once every 21 days, Day 0 pre treatment 3.1
  Lymphnode L SMLN longest dimension: 2.3 cm
Day 21 (Treatment #2), 0.3 mg/kg IV once every 21 days, Day 0 pre treatment 3.6
  Lymphnode R PSLN longest dimension: 2.7 cm
Day 21 (Treatment #2), 0.3 mg/kg IV once every 21 days, Day 0 pre treatment 5.0
  Lymphnode L PSLN longest dimension: 2.8 cm
Day 21 (Treatment #2)
  Sum of lymphnodes: 11.1 cm
[3]
  Response (RECIST): PR (Partial Response (PR) if at least a 30% decrease in the sum of the LD of target lesions, taking as reference the baseline sum)
  % change of sum of lymphnodes: −34.3%
Day 21 vs Day 0 pre treatment sum 16.9
  Change of sum of lymphnodes: −5.8 cm
[4]
  Response (RECIST): PR (Partial Response (PR) if at least a 30% decrease in the sum of the LD of target lesions, taking as reference the baseline sum)
  % change of sum of lymphnodes: −67.5%
Day 28, 0.3 mg/kg IV once every 21 days, Day 0 pre treatment 2.9
  Lymphnode R SMLN longest dimension: 1.0 cm
Day 28, 0.3 mg/kg IV once every 21 days, Day 0 pre treatment 3.1
  Lymphnode L SMLN longest dimension: 1.5 cm
Day 28, 0.3 mg/kg IV once every 21 days, Day 0 pre treatment 3.6
  Lymphnode R PSLN longest dimension: 1.5 cm
Day 28, 0.3 mg/kg IV once every 21 days, Day 0 pre treatment 5.0
  Lymphnode L PSLN longest dimension: 1.5 cm
Day 28
  Sum of lymphnodes: 5.5 cm
Day 28 vs Day 0 pre treatment sum 16.9
  Change of sum of lymphnodes: −11.4 cm
Day 42 (Treatment #3), 0.3 mg/kg IV once every 21 days, Day 0 pre treatment 2.3
  Lymphnode L PopLN size: WNL
Day 42 (Treatment #3), 0.3 mg/kg IV once every 21 days, Day 0 pre treatment 2.9
  Lymphnode R SMLN size: WNL
Day 42 (Treatment #3), 0.3 mg/kg IV once every 21 days, Day 0 pre treatment 3.1
  Lymphnode L SMLN size: WNL**
Day 42 (Treatment #3), 0.3 mg/kg IV once every 21 days, Day 0 pre treatment 3.6
  Lymphnode R PSLN size: WNL
Day 42 (Treatment #3), 0.3 mg/kg IV once every 21 days, Day 0 pre treatment 5.0
  Lymphnode L PSLN size: WNL
[5]
  Response (RECIST): CR (Complete Response (CR) if lymphnodes returned to a size within normal limits)
  % change of sum of lymphnodes: −100%
After one treatment, 0.3 mg/kg IV
  Response to treatment: Partial Response
Starting on Day 7 after the first treatment, continued improvement to day 42
  reduction in tumor size: significant reduction in tumor size
With continued treatment, 0.3 mg/kg IV once every 21 days
  Response to treatment: Complete Response with complete elimination of the tumor

— patent US8163718B2, “Nucleoside analogues containing phosphonate or phosphonamide groups” (Gilead Sciences, Inc., priority 2008, dated 2012)
